# Assay results as given in patent US11135224B2, “Methods of sensitizing estrogen receptor positive (ER+) breast cancer cells to endocrine therapy” (New York University, priority 2018, dated 2021).
# System: RUNX2 protein
# Assay: RUNX2 protein immunoblot after CGP57380
# Format: cell-based, human
# Details: TamS and TamR cells, treated for 6 hours vs untreated
# Procedure: The average of three studies is shown. The immunoblot is representative of three independent studies. […] Equal amounts of RNA were quantified by RT-qPCR and normalized to GAPDH using the −ΔΔCt method. An average of three studies is shown. […] Equal protein amounts were immunoblotted as shown. eEF2 was used as a loading control. […] Cells were treated with DMSO and 1 μM4-OHT and silenced for Runx2 or nonsilencing (NS). The results of three independent experiments are shown. […] Lines represent validated and predicted interactions. […] (**)P<0.01; (***)P<0.001 by t-test.
# Immunoblot Studies: In brief, cells were lysed in NP-40 buffer (50 mM HEPES, pH 7.0, 150 mM NaCl, 2 mM EDTA, 25 mM NaF, 25 mM β-glycerophosphate, 2 mM Na3VO4, 1% IGEPAL, and Complete Mini protease inhibitor cocktail tablet+/−EDTA; Roche) or RIPA lysis buffer (1% Triton X-100, 1% sodium deoxycholate, 0.1% SDS, 150 mM NaCl, 50 mM Tris, pH 7.4, 2 mM Na3VO4, 25 mM β-glycerophosphate, 15 mM NaF, and complete protease inhibitor mix; Roche) and lysate cleared by centrifugation at 13,000 rpm for 10 minutes at 4° C. Lysate protein concentration was determined for each sample using BCA assay. […] Quantitation was performed by determination of the integrated density of the bands using ImageJ software.
# The biological functions of mRNAs identified as highly eIF4E-dependent in tamoxifen-resistant cells were next assessed. […]
smiles,measurement,value
Nc1ncnc2n[nH]c(Nc3ccc(F)cc3)c12 [CGP57380],RUNX2 protein levels,reduced more than threefold
